In patent US4520029A, “Farnesene derivatives, mucosal stabilizing compositions and method of manufacturing the same” (Kotobuki Seiyaku Co., Ltd., priority 1980, dated 1985):

How the values were obtained:
[1] = tested on: carragenin-induced rat paw edema; test: Carragenin-induced rat paw edema (anti-inflammatory effect); format: in vivo; conditions: 300 mg/kg oral, Wister rat, maximum percentage inhibition during 4 hours after administration
Protocol: The anti-inflammatory effect of these compounds on carragenin-induced rat paw edema was examined in accordance with the method of C. A. Winter (J. Pharmacol. 141, 369, […]. The compounds of the present invention were suspended in 1% methyl-cellulose and orally administered at a dose of 300 mg/kg to Wister rat, weighing about 140 g. The maximum percentage inhibition during 4 hours after administration was calculated as follows: [formula] The results are shown in Table 3.

stress ulcer = test: Stress ulcer in rats (anti-ulcerative action); format: in vivo, rat; conditions: 100 mg/kg per os, male Wister rats, 30 minutes before the stress; stressing 18 hours; control 4.6 ± 0.70
Protocol: To study the anti-ulcerative actions of these compounds of the present invention further, the stress ulcer was selected. Male Wister rats, weighing 200-250 g were subjected to stress according to Takagi et al. (Chem. Pharm. Bull 12, 465, 1964). These compounds were suspended in 1% methyl cellulose and were administered to the rat at a dose of 100 mg/kg body weight per os, 30 minutes before the stress. After stressing for 18 hours, the animals were killed by a blow on the head. The removed stomach was filled with 1% formalin solution, placed in 1% formalin solution for 15 minutes and was then cut open along the greater curvature and examined for lesion to obtain the ulcer index. The ulcer index was determined in six grades (0-5; 5 implying perforation of stomach).

gastric epithelial cell = test: Gastric epithelial cell stabilizing effect in pylorus-ligated rats (NANA in gastric juice); format: in vivo, rat; conditions: male Donryu rats, oral three times a day for five days, 8 hours after pylorus ligation; for NANA content in gastric juice, free: control 22.5, * P < 0.05 vs control (V, VI and VII all marked *); for NANA content in gastric juice, bound: control 93.3; for NANA content in gastric juice, bound / NANA content in gastric juice, total: * P < 0.05 vs control (only V marked *); for NANA content in gastric juice, total: control 115.8
Protocol: The investigation of the gastric epithelial cell stabilizing effects of these compounds were examined in rats. Male Donryu strain rats, weighing about 200 g, were given the test compound orally three times a day for five days. On the fifth day the animals were fasted for 24 hours, and submitted to pylorus ligation under light ether anesthesia. The test compounds were given just after pylorus ligation orally. After 8 hours of ligation, the rats were sacrificed and the volume of gastric juice was measured. After centrifuging 6 ml of this gastric juice at 5000 r.p.m., 2 ml of the resulting supernatant was submitted to N-acetyl neuraminic acid (NANA) determination according to the method of D. Aminoff (D. Aminoff et al., Biochem. J. […], 384-392 (1961)).

[2] = Acute toxicity in ddY strain mice, up and down method, oral; conditions: mouse, in vivo, suspended in 1% methyl cellulose, given orally, observation 24 hours, read-out: LD50 (per os)
Protocol: Acute toxicity of the compounds of the present invention in ddY strain mice was determined by the up and down method, with observation for 24 hours. The compounds in this experiment were suspended in 1% methyl cellulose and given orally.

Structure (SMILES) | Maximum inhibition [1] [%] | Score (ulcer index, six grades 0-5; 5 implying perforation of stomach) (stress ulcer) | NANA content in gastric juice, free (gastric epithelial cell) [µg/mL] | NANA content in gastric juice, bound (gastric epithelial cell) [µg/mL] | NANA content in gastric juice, total (gastric epithelial cell) [µg/mL] | LD50 at 24 h [2] [mg/kg]
CC(C)=CCCC(C)=CCCC(C)=CCOC(=O)CC=C(C)CCC=C(C)CCC=C(C)C [Compound V, Farnesyl farnesyl carboxylate] | 35.8 | 1.8 ± 0.50 | 17.6 | 74.5 | 92.1 | 24500
CC(C)=CCCC(C)=CCCC(C)=CCNC(=O)CC=C(C)CCC=C(C)CCC=C(C)C [Compound VI, N-Farnesyl farnesyl carboxamide] | 30.1 | 2.3 ± 0.72 | 18.3 | 87.4 | 105.7 | 18700
CC(C)=CCCC(C)=CCCC(C)=CCNC(=O)OCC=C(C)CCC=C(C)CCC=C(C)C [Compound VII, N-Farnesyl farnesyl carbamate] | 23.7 | 2.1 ± 0.41 | 16.7 | 81.3 | 98.3 | 20200
